Assay results from patent publication US11274124B2, “Tubulysin analogues as anticancer agents and payloads for antibody-drug conjugates and methods of treatment therewith” (William Marsh Rice University, priority 2017, dated 2022).
Like-named read-outs stand apart in the source and are kept apart here.

How the values were obtained:
[1] = system: MES SA (uterine sarcoma cell line); test: In vitro cytotoxicity assay (CellTiter-Glo, 72 hours), MES SA; assay type: cell-based; details: Homo sapiens, MES-SA
[2] = system: HEK 293T (human embryonic kidney cancer cell line); test: In vitro cytotoxicity assay (CellTiter-Glo, 72 hours), HEK 293T; assay type: cell-based; details: Homo sapiens, HEK-293T
[3] = system: MES SA DX (MES SA cell line with marked multi-drug resistance); test: In vitro cytotoxicity assay (CellTiter-Glo, 72 hours), MES SA DX; details: Homo sapiens, MES-SA, 72 h
[4] = system: MES SA, MES SA DX and HEK 293T cells; test: In vitro cytotoxicity assay, structure-activity discussion over the cell lines tested; details: refers to Tables 2 and 3
[5] = 72 h, read-out: MES SA, IC50 Value in nM
[6] = 72 h, read-out: HEK 293T, IC50 Value in nM
[7] = read-out: MES SA DX, IC50 Value in nM

Row | Structure (SMILES) | IC50 [1, 5] [nM] | IC50 [2, 6] [nM] | IC50 [3, 7] [nM] | cytotoxicity potency (in words, structure-activity discussion) [4] | IC50 ([1]; 72 h, read-out: MES SA, IC50) [nM] | IC50 ([2]; 72 h, read-out: HEK 293T, IC50) [nM] | IC50 ([3]; read-out: MES SA DX, IC50) [nM] | IC50 ([1]; Table 2, 72 hours, CellTiter-Glo, read-out: MES SA, IC50 Value in nM) [nM] | IC50 ([2]; Table 2, 72 hours, CellTiter-Glo, read-out: HEK 293T, IC50 Value in nM) [nM]
1 | CC[C@H](C)[C@H](NC(=O)[C@H]1CCCCN1C)C(=O)N(C)[C@H](CC(=O)c1nc(C(=O)N[C@@H](Cc2ccccc2)C[C@H](C)C(=O)O)cs1)C(C)C [Tb59, (2S,4R)-2-Methyl-4-[({2-[(3R)-4-methyl-3-{methyl[(2S,3S)-3-methyl-2-({[(2R)-1-methylpiperidin-2-yl]carbonyl}amino)pentanoyl]amino}pentanoyl]-1,3-thiazol-4-yl}carbonyl)amino]-5-phenylpentanoic acid] | > 1000 | > 1000 | > 1000 | significant reduction in potency |  |  |  |  | 
2 | CCCCN1CCCC[C@@H]1C(=O)N[C@H](C(=O)N(C)[C@H](C[C@@H](OC(C)=O)c1nc(C(=O)N[C@H]2CC[C@H](C(=O)OC)CC2)cs1)C(C)C)C(C)C [Tb54, Methyl trans-4-[({2-[(1R,3R)-1-acetoxy-3-{[(2S)-2-({[(2R)-1-butylpiperidin-2-yl]carbonyl}amino)-3-methylbutanoyl](methyl)amino}-4-methylpentyl]-1,3-thiazol-4-yl}carbonyl)amino]cyclohexanecarboxylate] | > 1000 | > 1000 | > 1000 | insignificant or low biological activity |  |  |  |  | 
3 | CC[C@H](C)[C@H](NC(=O)c1cccn1C)C(=O)N(C)[C@H](C[C@@H](OC(C)=O)c1nc(C(=O)N[C@@H](Cc2ccccc2)C[C@H](C)C(=O)OC)cs1)C(C)C [Tb50] | > 1000 | > 1000 | > 1000 | insignificant or low biological activity |  |  |  |  | 
4 | CC[C@H](NC(=O)[C@H]1CCCCN1C)C(=O)N(C)[C@H](C[C@@H](OC(C)=O)c1nc(C(=O)N[C@@H](Cc2ccccc2)C[C@H](C)C(=O)O)cs1)C(C)C [Tb94, (2S,4R)-4-[({2-[(1R,3R)-1-acetoxy-4-methyl-3-{methyl[(2S)-2-({[(2R)-1-methylpiperidin-2-yl]carbonyl}amino)butanoyl]amino}pentyl]-1,3-thiazol-4-yl}carbonyl)amino]-2-methyl-5-phenylpentanoic acid] | 0.46 | 0.4 | 89.8 | significant potencies | 0.46 | 0.4 | 89.8 |  | 
5 | CC[C@H](C)[C@H](NC(=O)[C@H]1CCCCN1C)C(=O)N(C)[C@H](C[C@@H](O)c1nc(C(=O)N[C@@H](Cc2ccccc2)C[C@H](C)C(=O)O)cs1)C(C)C [Tb58, (2S,4R)-4-[({2-[(1R,3R)-1-Hydroxy-4-methyl-3-{methyl[(2S,3S)-3-methyl-2-({[(2R)-1-methylpiperidin-2-yl]carbonyl}amino)pentanoyl]amino}pentyl]-1,3-thiazol-4-yl}carbonyl)amino]-2-methyl-5-phenylpentanoic acid] | > 1000 | > 1000 | > 1000 | significant reduction in potency |  |  |  |  | 
6 | CCCCN1CCCC[C@@H]1C(=O)N[C@H](C(=O)N(C)[C@H](CCc1nc(C(=O)N[C@@H](Cc2ccccc2)C[C@H](C)C(=O)OC)cs1)C(C)C)C(C)C [PTb-D49] |  |  | > 1000 | insignificant or low biological activity |  |  |  | > 1000 | > 1000
7 | COC(=O)C12CC(NC(=O)c3csc([C@@H](C[C@H](C(C)C)N(C)C(=O)[C@@H](NC(=O)[C@H]4CCCCN4C)C(C)C)OC(C)=O)n3)(C1)C2 [Tb102, Methyl 3-{[(2-{1-acetoxy-4-methyl-3-[methyl(3-methyl-2-{[(1-methylpiperidin-2-yl)carbonyl]amino}-butanoyl)amino]pentyl}-1,3-thiazol-4-yl)carbonyl]amino}bicyclo[1.1.1]pentane-1-carboxylate] | 0.926 | 0.355 | 54.1 | subnanomolar potencies against two of the cell lines tested | 0.926 | 0.355 | 54.1 |  | 
8 | CCOC(=O)[C@@H](C)C[C@H](Cc1ccccc1)NC(=O)c1csc([C@@H](C[C@H](C(C)C)N(C)C(=O)[C@@H](NC(=O)[C@H]2CCCCN2C)C(C)(C)CC)OC(C)=O)n1 [Tb108, Ethyl (2S,4R)-4-[({2-[(1R,3R)-1-acetoxy-3-{[(2S)-3,3-dimethyl-2-({[(2R)-1-methylpiperidin-2-yl]car-bonyl}amino)pentanoyl](methyl)amino}-4-methylpentyl]-1,3-thiazol-4-yl}carbonyl)amino]-2-methyl-5-phenylpentanoate] | 0.95 | 0.38 | 6.08 | exceptional potencies | 0.95 | 0.38 | 6.08 |  | 
9 | COC(=O)[C@@H](C)C[C@H](Cc1ccccc1)NC(=O)c1nc([C@@H](C[C@H](C(C)C)N(C)C(=O)[C@@H](NC(=O)[C@H]2CCCN2C)C(C)C)OC(C)=O)sc1C [Tb70, Methyl (2S,4R)-4-[({2-[(1R,3R)-1-acetoxy-4-methyl-3-{methyl[(2S)-3-methyl-2-({[(2R)-1-methyl-pyrrolidin-2-yl]carbonyl}amino)butanoyl]amino}pentyl]-5-methyl-1,3-thiazol-4-yl}carbonyl)amino]-2-methyl-5-phenylpentanoate] | 3.11 | 2.32 | > 1000 | significant loss of potency |  |  |  |  | 
10 | COC(=O)[C@@H](C)C[C@H](Cc1ccccc1)NC(=O)c1nc([C@@H](C[C@H](C(C)C)N(C)C(=O)[C@@H](NC(=O)[C@H]2CCCCN2C)C(C)C)OC(C)=O)sc1C [Tb66, Methyl (2S,4R)-4-[({2-[(1R,3R)-1-acetoxy-4-methyl-3-{methyl[(2S)-3-methyl-2-({[(2R)-1-methyl-piperidin-2-yl]carbonyl}amino)butanoyl]amino}pentyl]-5-methyl-1,3-thiazol-4-yl}carbonyl)amino]-2-methyl-5-phenylpentanoate] | 1.03 | 0.773 | > 1000 | some loss of potency |  |  |  |  | 
11 | CCOC(=O)[C@@H](C)C[C@H](Cc1ccccc1)NC(=O)c1csc([C@@H](C[C@H](C(C)C)N(C)C(=O)[C@@H](NC(=O)[C@H]2CCCCN2C)C(C)(C)C)OC(C)=O)n1 [Tb106, Ethyl (2S,4R)-4-[({2-[(1R,3R)-1-acetoxy-3-{[(2S)-3,3-dimethyl-2-({[(2R)-1-methylpiperidin-2-yl]car-bonyl}amino)butanoyl](methyl)amino}-4-methylpentyl]-1,3-thiazol-4-yl}carbonyl)amino]-2-methyl-5-phenylpentanoate] | 0.12 | 0.13 | 2.73 | exceptional potencies | 0.12 | 0.13 | 2.73 |  | 
12 | CCOC(=O)[C@@H](C)C[C@H](Cc1ccccc1)NC(=O)c1csc([C@@H](C[C@H](C(C)C)N(C)C(=O)[C@H](CC)NC(=O)[C@H]2CCCCN2C)OC(C)=O)n1 [Tb93, Ethyl (2S,4R)-4-[({2-[(1R,3R)-1-acetoxy-4-methyl-3-{methyl[(2S)-2-({[(2R)-1-methylpiperidin-2-yl]-carbonyl}amino)butanoyl]amino}pentyl]-1,3-thiazol-4-yl}carbonyl)amino]-2-methyl-5-phenylpentanoate] | 0.15 | 0.2 | 31.9 | significant potencies | 0.15 | 0.2 | 31.9 |  | 
13 | COC(=O)[C@@H](C)C[C@H](Cc1ccccc1)NC(=O)c1csc(C(=O)C[C@H](C(C)C)N(C)C(=O)[C@@H](NC(=O)[C@H]2CCCCN2C)C(C)C)n1 [Tb63, Methyl (2S,4R)-2-methyl-4-[({2-[(3R)-4-methyl-3-{methyl[(2S)-3-methyl-2-({[(2R)-1-methylpiperidin-2-yl]carbonyl}amino)butanoyl]amino}pentanoyl]-1,3-thiazol-4-yl}carbonyl)amino]-5-phenylpentanoate] | > 1000 | > 1000 | > 1000 | significant reduction in potency |  |  |  |  | 
14 | CCOC(=O)[C@@H](C)CC(Cc1ccccc1)NC(=O)c1csc([C@@H](CC(C(C)C)N(C)C(=O)[C@@H](NC(=O)[C@H]2C[C@H](O[Si](C)(C)C(C)(C)C)CCN2C)C(C)C)OC(C)=O)n1 (stereo in doubt) [Tb77, Ethyl (2S,4S)-4-[({2-[(1R,3S)-1-acetoxy-3-{[(2S)-2-({[(4R)-4-{[tert-butyl(dimethyl)silyl]oxy}-1-meth-ylpiperidin-2-yl]carbonyl}amino)-3-methylbutanoyl](methyl)amino}-4-methylpentyl]-1,3-thiazol-4-yl}carbonyl)amino]-2-methyl-5-phenylpentanoate] | 848 | > 400 | > 2500 | insignificant or low biological activity |  |  |  |  | 
